Laboratory results from the NIST ThermoML archive (doi:10.1021/je800110r).
Numbers after ± are expanded uncertainties.

Details: Liquid, Vibrating tube method

CCCCCCCCCC [decane]
mass density [kg/m3]
Details	283.15 K	293.14 K
635 kPa	–	730.3 ± 2
660 kPa	–	730.5 ± 2
720 kPa	–	730.4 ± 2
803 kPa	–	730.5 ± 2
26776 kPa	755.1 ± 2.1	–
26808 kPa	755.2 ± 2.1	–
26844 kPa	755.1 ± 2.1	–
26869 kPa	755.2 ± 2.1	–
26895 kPa	755.3 ± 2.1	–
26931 kPa	755.3 ± 2.1	–
26952 kPa	755.2 ± 2.1	–
26974 kPa	755.3 ± 2.1	–
27007 kPa	755.3 ± 2.1	–
27036 kPa	755.3 ± 2.1	–
27058 kPa	755.3 ± 2.1	–
27090 kPa	755.5 ± 2.1	–
27112 kPa	755.3 ± 2.1	–
27145 kPa	755.4 ± 2.1	–
27171 kPa	755.4 ± 2.1	–
27193 kPa	755.5 ± 2.1	–
27219 kPa	755.3 ± 2.1	–
27242 kPa	755.5 ± 2.1	–
27268 kPa	755.6 ± 2.1	–
27295 kPa	755.5 ± 2.1	–
27321 kPa	755.4 ± 2.1	–
27347 kPa	755.6 ± 2.1	–
27373 kPa	755.5 ± 2.1	–
27611 kPa	755.7 ± 2.1	–
27638 kPa	755.7 ± 2.1	–
27665 kPa	755.8 ± 2.1	–
27700 kPa	755.7 ± 2.1	–
27726 kPa	755.8 ± 2.1	–
27749 kPa	755.7 ± 2.1	–
27784 kPa	755.8 ± 2.1	–
27818 kPa	755.8 ± 2.1	–
27842 kPa	755.9 ± 2.1	–
27876 kPa	755.9 ± 2.1	–
27908 kPa	755.9 ± 2.1	–
27935 kPa	755.9 ± 2.1	–
27963 kPa	755.9 ± 2.1	–
27990 kPa	755.9 ± 2.1	–
28021 kPa	755.9 ± 2.1	–
28049 kPa	755.9 ± 2.1	–
28076 kPa	756 ± 2.1	–
28113 kPa	756 ± 2.1	–
28134 kPa	756 ± 2.1	–
28171 kPa	756 ± 2.1	–
28206 kPa	756 ± 2.1	–
28227 kPa	756 ± 2.1	–
28251 kPa	756.1 ± 2.1	–
28288 kPa	756.1 ± 2.1	–
28322 kPa	756.2 ± 2.1	–
28344 kPa	756.1 ± 2.1	–
28377 kPa	756 ± 2.1	–
28409 kPa	756.2 ± 2.1	–
28431 kPa	756.3 ± 2.1	–
28463 kPa	756.1 ± 2.1	–
28486 kPa	756.2 ± 2.1	–
28515 kPa	756.3 ± 2.1	–
28541 kPa	756.2 ± 2.1	–
28571 kPa	756.3 ± 2.1	–
28597 kPa	756.3 ± 2.1	–
28616 kPa	756.2 ± 2.1	–
28645 kPa	756.3 ± 2.1	–
28678 kPa	756.4 ± 2.1	–
28701 kPa	756.3 ± 2.1	–
28728 kPa	756.4 ± 2.1	–
28766 kPa	756.4 ± 2.1	–
28792 kPa	756.5 ± 2.1	–
28822 kPa	756.4 ± 2.1	–
28845 kPa	756.5 ± 2.1	–
28872 kPa	756.5 ± 2.1	–
28899 kPa	756.5 ± 2.1	–
28925 kPa	756.5 ± 2.1	–
28952 kPa	756.4 ± 2.1	–
28987 kPa	756.5 ± 2.1	–
29014 kPa	756.5 ± 2.1	–
29040 kPa	756.5 ± 2.1	–
29067 kPa	756.5 ± 2.1	–
29114 kPa	756.7 ± 2.1	–
29141 kPa	756.6 ± 2.1	–
29203 kPa	756.7 ± 2.1	–
29251 kPa	756.7 ± 2.1	–
29278 kPa	756.6 ± 2.1	–
29309 kPa	756.6 ± 2.1	–
29341 kPa	756.7 ± 2.1	–
29368 kPa	756.7 ± 2.1	–
29392 kPa	756.6 ± 2.1	–
29424 kPa	756.7 ± 2.1	–
29460 kPa	756.7 ± 2.1	–
29484 kPa	756.8 ± 2.1	–
29508 kPa	756.7 ± 2.1	–
29555 kPa	756.8 ± 2.1	–
29591 kPa	756.8 ± 2.1	–
29652 kPa	756.9 ± 2.1	–
29688 kPa	757 ± 2.1	–
30170 kPa	757.2 ± 2.1	–
30200 kPa	757.3 ± 2.1	–
30225 kPa	757.3 ± 2.1	–
30263 kPa	757.3 ± 2.1	–
30301 kPa	757.1 ± 2.1	–
30327 kPa	757.2 ± 2.1	–
30365 kPa	757.4 ± 2.1	–
30399 kPa	757.3 ± 2.1	–
30425 kPa	757.3 ± 2.1	–
30461 kPa	757.4 ± 2.1	–
30487 kPa	757.4 ± 2.1	–
30512 kPa	757.4 ± 2.1	–
30539 kPa	757.4 ± 2.1	–
30561 kPa	757.4 ± 2.1	–
30603 kPa	757.4 ± 2.1	–
30638 kPa	757.4 ± 2.1	–
30664 kPa	757.4 ± 2.1	–
30704 kPa	757.5 ± 2.1	–
30740 kPa	757.4 ± 2.1	–
30771 kPa	757.5 ± 2.1	–
30836 kPa	757.5 ± 2.1	–
30867 kPa	757.5 ± 2.1	–
30893 kPa	757.6 ± 2.1	–
30975 kPa	757.6 ± 2.1	–
31003 kPa	757.6 ± 2.1	–
31031 kPa	757.7 ± 2.1	–
31062 kPa	757.8 ± 2.1	–
31099 kPa	757.6 ± 2.1	–
31136 kPa	757.6 ± 2.1	–
31162 kPa	757.7 ± 2.1	–
31187 kPa	757.9 ± 2.1	–
31218 kPa	757.7 ± 2.1	–
31253 kPa	757.8 ± 2.1	–
31284 kPa	757.9 ± 2.1	–
31310 kPa	757.9 ± 2.1	–
31337 kPa	757.9 ± 2.1	–
31363 kPa	757.8 ± 2.1	–
31377 kPa	757.9 ± 2.1	–
31402 kPa	757.9 ± 2.1	–
31424 kPa	758 ± 2.1	–
31441 kPa	758 ± 2.1	–
31463 kPa	758 ± 2.1	–
31492 kPa	758 ± 2.1	–
31509 kPa	758 ± 2.1	–
31566 kPa	757.9 ± 2.1	–
31598 kPa	758 ± 2.1	–
31615 kPa	758 ± 2.1	–
31631 kPa	758 ± 2.1	–
31657 kPa	758.2 ± 2.1	–
31680 kPa	758 ± 2.1	–
31697 kPa	758.1 ± 2.1	–
31724 kPa	758.2 ± 2.1	–
31749 kPa	758.2 ± 2.1	–
31769 kPa	758.1 ± 2.1	–
31794 kPa	758.1 ± 2.1	–
31815 kPa	758.3 ± 2.1	–
31835 kPa	758.2 ± 2.1	–
31855 kPa	758.3 ± 2.1	–
31878 kPa	758.3 ± 2.1	–
32055 kPa	758.2 ± 2.1	–
32091 kPa	758.2 ± 2.1	–
32141 kPa	758.3 ± 2.1	–
32209 kPa	758.4 ± 2.1	–
32230 kPa	758.4 ± 2.1	–
32248 kPa	758.4 ± 2.1	–
32268 kPa	758.5 ± 2.1	–
32289 kPa	758.5 ± 2.1	–
32312 kPa	758.4 ± 2.1	–
32330 kPa	758.4 ± 2.1	–
32357 kPa	758.5 ± 2.1	–
32378 kPa	758.5 ± 2.1	–
32405 kPa	758.4 ± 2.1	–
32427 kPa	758.6 ± 2.1	–
32445 kPa	758.5 ± 2.1	–
32465 kPa	758.5 ± 2.1	–
32490 kPa	758.6 ± 2.1	–
32511 kPa	758.4 ± 2.1	–
32535 kPa	758.6 ± 2.1	–
32559 kPa	758.5 ± 2.1	–
32597 kPa	758.6 ± 2.1	–
32618 kPa	758.6 ± 2.1	–
32636 kPa	758.6 ± 2.1	–
32655 kPa	758.6 ± 2.1	–
32682 kPa	758.7 ± 2.1	–
32708 kPa	758.8 ± 2.1	–
32727 kPa	758.6 ± 2.1	–
32746 kPa	758.7 ± 2.1	–
32767 kPa	758.6 ± 2.1	–
32793 kPa	758.6 ± 2.1	–
32811 kPa	758.7 ± 2.1	–
32827 kPa	758.8 ± 2.1	–
32850 kPa	758.7 ± 2.1	–
32869 kPa	758.7 ± 2.1	–
32894 kPa	758.7 ± 2.1	–
32922 kPa	758.8 ± 2.1	–
32944 kPa	758.8 ± 2.1	–
32966 kPa	758.7 ± 2.1	–
32989 kPa	758.9 ± 2.1	–
33018 kPa	758.8 ± 2.1	–
33037 kPa	758.9 ± 2.1	–
33062 kPa	758.7 ± 2.1	–
33085 kPa	758.9 ± 2.1	–
33107 kPa	758.9 ± 2.1	–
33133 kPa	759 ± 2.1	–
33155 kPa	758.9 ± 2.1	–
33178 kPa	759 ± 2.1	–
33200 kPa	759.1 ± 2.1	–
33220 kPa	759 ± 2.1	–
33249 kPa	759 ± 2.1	–
33275 kPa	759 ± 2.1	–
33295 kPa	759 ± 2.1	–
33544 kPa	759.2 ± 2.1	–
33573 kPa	759.1 ± 2.1	–
33592 kPa	759.1 ± 2.1	–
33621 kPa	759.2 ± 2.1	–
33651 kPa	759.1 ± 2.1	–
33667 kPa	759.3 ± 2.1	–
33690 kPa	759.3 ± 2.1	–
33707 kPa	759.1 ± 2.1	–
33737 kPa	759.2 ± 2.1	–
33761 kPa	759.3 ± 2.1	–
33781 kPa	759.2 ± 2.1	–
33805 kPa	759.2 ± 2.1	–
33822 kPa	759.3 ± 2.1	–
33852 kPa	759.2 ± 2.1	–
33873 kPa	759.3 ± 2.1	–
33897 kPa	759.2 ± 2.1	–
33922 kPa	759.3 ± 2.1	–
33943 kPa	759.4 ± 2.1	–
33964 kPa	759.4 ± 2.1	–
33982 kPa	759.3 ± 2.1	–
34002 kPa	759.4 ± 2.1	–
34022 kPa	759.4 ± 2.1	–
34045 kPa	759.4 ± 2.1	–
34063 kPa	759.5 ± 2.1	–
34081 kPa	759.3 ± 2.1	–
34104 kPa	759.4 ± 2.1	–
34127 kPa	759.6 ± 2.1	–
34148 kPa	759.4 ± 2.1	–
34169 kPa	759.4 ± 2.1	–
34195 kPa	759.5 ± 2.1	–
34214 kPa	759.5 ± 2.1	–
34237 kPa	759.6 ± 2.1	–
34264 kPa	759.5 ± 2.1	–
34311 kPa	759.6 ± 2.1	–
34330 kPa	–	753.1 ± 2.1
34339 kPa	759.5 ± 2.1	–
34351 kPa	–	753.1 ± 2.1
34359 kPa	759.6 ± 2.1	–
34380 kPa	–	753.2 ± 2.1
34400 kPa	–	753.1 ± 2.1
34412 kPa	–	753.3 ± 2.1
34420 kPa	–	753.2 ± 2.1
34428 kPa	–	753.1 ± 2.1
34437 kPa	–	753.2 ± 2.1
34447 kPa	759.6 ± 2.1	–
34451 kPa	–	753.2 ± 2.1
34459 kPa	–	753.2 ± 2.1
34471 kPa	–	753.2 ± 2.1
34478 kPa	759.7 ± 2.1	–
34481 kPa	–	753.1 ± 2.1
34490 kPa	759.6 ± 2.1	–
34491 kPa	–	753.1 ± 2.1
34504 kPa	759.7 ± 2.1	753.2 ± 2.1
34514 kPa	759.7 ± 2.1	–
34517 kPa	–	753.2 ± 2.1
34527 kPa	–	753.2 ± 2.1
34530 kPa	759.6 ± 2.1	–
34537 kPa	–	753.3 ± 2.1
34543 kPa	–	753.2 ± 2.1
34544 kPa	759.7 ± 2.1	–
34545 kPa	–	753.3 ± 2.1
34551 kPa	759.7 ± 2.1	–
34558 kPa	759.6 ± 2.1	–
34561 kPa	759.7 ± 2.1	–
34564 kPa	759.8 ± 2.1	–
34567 kPa	759.6 ± 2.1	–
